Mutagenic call data for 7 compounds are collected here from PubChem BioAssay AID1259407 (Chemical Carcinogenesis Research Information System (CCRIS), 2018).

The test system of the data set is CCRIS mutagenicity, Ames/micronucleus/aberration tests. In words: CCRIS mutagenicity studies.
The mark [1] stands for this setting: Test System: AMES SALMONELLA TYPHIMURIUM, Strain/Indicator: TA98, Metabolic Activation: NONE, Method: STANDARD PLATE.
Where [2] appears, read: Test System: AMES SALMONELLA TYPHIMURIUM, Strain/Indicator: TA98, Metabolic Activation: RAT, LIVER, S-9, AROCLOR 1254, Method: STANDARD PLATE.
The mark [3] stands for this setting: Test System: AMES SALMONELLA TYPHIMURIUM, Strain/Indicator: TA100, Metabolic Activation: NONE, Method: STANDARD PLATE.
Where [4] appears, read: Test System: AMES SALMONELLA TYPHIMURIUM, Strain/Indicator: TA100, Metabolic Activation: RAT, LIVER, S-9, AROCLOR 1254, Method: STANDARD PLATE.
[5] abbreviates: Test System: AMES SALMONELLA TYPHIMURIUM, Strain/Indicator: TA98, Metabolic Activation: NONE, Method: PREINCUBATION
The mark [6] stands for this setting: Test System: AMES SALMONELLA TYPHIMURIUM, Strain/Indicator: TA100, Metabolic Activation: NONE, Method: PREINCUBATION
The mark [7] stands for this setting: Test System: AMES SALMONELLA TYPHIMURIUM, Strain/Indicator: TA1535, Metabolic Activation: NONE, Method: PREINCUBATION

The source made the active and inactive calls. No rule for the calls is given here.

Regarding `Nc1ccccc1C(F)(F)F`, the mutagenic call under setting [1] is “inactive; negative”; the mutagenic call under setting [2] was “inactive; negative”; the mutagenic call under setting [3] is “inactive; negative”; the mutagenic call under setting [4] was “inactive; negative”; the mutagenic call (Test System: AMES SALMONELLA TYPHIMURIUM, Strain/Indicator: TA1535, Metabolic Activation: NONE, Method: STANDARD PLATE) is “inactive; negative”; the mutagenic call (Test System: AMES SALMONELLA TYPHIMURIUM, Strain/Indicator: TA1535, Metabolic Activation: RAT, LIVER, S-9, AROCLOR 1254, Method: STANDARD PLATE) is “inactive; negative”. In addition, the mutagenic call is, setting by setting: (Test System: AMES SALMONELLA TYPHIMURIUM, Strain/Indicator: TA1537, Metabolic Activation: NONE, Method: STANDARD PLATE) “inactive; negative”; (Test System: AMES SALMONELLA TYPHIMURIUM, Strain/Indicator: TA1537, Metabolic Activation: RAT, LIVER, S-9, AROCLOR 1254, Method: STANDARD PLATE) “inactive; negative”; (Test System: AMES SALMONELLA TYPHIMURIUM, Strain/Indicator: TA1538, Metabolic Activation: NONE, Method: STANDARD PLATE) “inactive; negative”; (Test System: AMES SALMONELLA TYPHIMURIUM, Strain/Indicator: TA1538, Metabolic Activation: RAT, LIVER, S-9, AROCLOR 1254, Method: STANDARD PLATE) “inactive; negative”.

`CC(=O)c1c(C)c([N+](=O)[O-])c(C(C)(C)C)c([N+](=O)[O-])c1C`: the mutagenic call was “inactive; negative” (Test System: AMES SALMONELLA TYPHIMURIUM, Strain/Indicator: TA97, Metabolic Activation: HAMSTER, LIVER, S-9, AROCLOR 1254 (10 OR 30%), Method: PREINCUBATION); “inactive; negative” (Test System: AMES SALMONELLA TYPHIMURIUM, Strain/Indicator: TA97, Metabolic Activation: NONE, Method: PREINCUBATION); “inactive; negative” (Test System: AMES SALMONELLA TYPHIMURIUM, Strain/Indicator: TA97, Metabolic Activation: RAT, LIVER, S-9, AROCLOR 1254 (10 OR 30%), Method: PREINCUBATION); “inactive; negative” (Test System: AMES SALMONELLA TYPHIMURIUM, Strain/Indicator: TA98, Metabolic Activation: HAMSTER, LIVER, S-9, AROCLOR 1254 (10 OR 30%), Method: PREINCUBATION); “inactive; negative” under setting [5]; “inactive; negative” (Test System: AMES SALMONELLA TYPHIMURIUM, Strain/Indicator: TA98, Metabolic Activation: RAT, LIVER, S-9, AROCLOR 1254 (10 OR 30%), Method: PREINCUBATION). The mutagenic call by setting is: (Test System: AMES SALMONELLA TYPHIMURIUM, Strain/Indicator: TA98, Metabolic Activation: RAT, LIVER, S-9, AROCLOR 1254, Method: PREINCUBATION) “inactive; negative”; under setting [2], “inactive; negative”; (Test System: AMES SALMONELLA TYPHIMURIUM, Strain/Indicator: TA100, Metabolic Activation: HAMSTER, LIVER, S-9, AROCLOR 1254 (10 OR 30%), Method: PREINCUBATION) “inactive; negative”; under setting [6], “inactive; negative”; (Test System: AMES SALMONELLA TYPHIMURIUM, Strain/Indicator: TA100, Metabolic Activation: RAT, LIVER, S-9, AROCLOR 1254 (10 OR 30%), Method: PREINCUBATION) “inactive; negative”; (Test System: AMES SALMONELLA TYPHIMURIUM, Strain/Indicator: TA100, Metabolic Activation: RAT, LIVER, S-9, AROCLOR 1254, Method: PREINCUBATION) “inactive; negative”. Besides, the mutagenic call by setting is: under setting [4], “inactive; negative”; (Test System: AMES SALMONELLA TYPHIMURIUM, Strain/Indicator: TA1535, Metabolic Activation: HAMSTER, LIVER, S-9, AROCLOR 1254 (10 OR 30%), Method: PREINCUBATION) “inactive; negative”; under setting [7], “inactive; negative”; (Test System: AMES SALMONELLA TYPHIMURIUM, Strain/Indicator: TA1535, Metabolic Activation: RAT, LIVER, S-9, AROCLOR 1254 (10 OR 30%), Method: PREINCUBATION) “inactive; negative”; (Test System: MOUSE LYMPHOMA, Strain/Indicator: L5178Y (TK+/TK-), Metabolic Activation: NONE, Method: SUSPENSION/PLATE) “inactive; negative”; (Test System: MOUSE LYMPHOMA, Strain/Indicator: L5178Y (TK+/TK-), Metabolic Activation: RAT, LIVER, S-9, AROCLOR 1242 AND AROCLOR 1254 (2:1), Method: SUSPENSION/PLATE) “inactive; negative”. Further, the mutagenic call (Test System: UDS RAT PRIMARY HEPATOCYTES, Strain/Indicator: THY INCORP, Metabolic Activation: NONE) is “inactive; negative”.

As to `CCCC(=O)Nc1snc2ccccc12`, the mutagenic call reads like this: under setting [3], “inactive; negative”; (Test System: AMES SALMONELLA TYPHIMURIUM, Strain/Indicator: TA100, Metabolic Activation: S-9, Method: STANDARD PLATE) “inactive; negative”.

For `O=Cc1ccc(COS(=O)(=O)O)o1`, the mutagenic call is “inactive; negative” under setting [1]; “active; positive” under setting [3]; “active; positive” (Test System: AMES SALMONELLA TYPHIMURIUM, Strain/Indicator: TA104, Metabolic Activation: NONE, Method: PREINCUBATION).

On to `CC(C)COC(=O)c1ccccc1N`, for which the mutagenic call by setting is: (Test System: AMES SALMONELLA TYPHIMURIUM, Strain/Indicator: TA98, Metabolic Activation: HAMSTER, LIVER, S-9, AROCLOR 1254 (10%), Method: PREINCUBATION) “inactive; negative”; under setting [5], “inactive; negative”; (Test System: AMES SALMONELLA TYPHIMURIUM, Strain/Indicator: TA98, Metabolic Activation: RAT, LIVER, S-9, AROCLOR 1254 (10%), Method: PREINCUBATION) “inactive; negative”; (Test System: AMES SALMONELLA TYPHIMURIUM, Strain/Indicator: TA100, Metabolic Activation: HAMSTER, LIVER, S-9, AROCLOR 1254 (10%), Method: PREINCUBATION) “inactive; negative”; under setting [6], “inactive; negative”; (Test System: AMES SALMONELLA TYPHIMURIUM, Strain/Indicator: TA100, Metabolic Activation: RAT, LIVER, S-9, AROCLOR 1254 (10%), Method: PREINCUBATION) “inactive; negative”. For the same compound, the mutagenic call (Test System: AMES SALMONELLA TYPHIMURIUM, Strain/Indicator: TA1535, Metabolic Activation: HAMSTER, LIVER, S-9, AROCLOR 1254 (10%), Method: PREINCUBATION) was “inactive; negative”; the mutagenic call under setting [7] is “inactive; negative”; the mutagenic call (Test System: AMES SALMONELLA TYPHIMURIUM, Strain/Indicator: TA1535, Metabolic Activation: RAT, LIVER, S-9, AROCLOR 1254 (10%), Method: PREINCUBATION) was “inactive; negative”; the mutagenic call (Test System: AMES SALMONELLA TYPHIMURIUM, Strain/Indicator: TA1537, Metabolic Activation: HAMSTER, LIVER, S-9, AROCLOR 1254 (10%), Method: PREINCUBATION) was “inactive; negative”; the mutagenic call (Test System: AMES SALMONELLA TYPHIMURIUM, Strain/Indicator: TA1537, Metabolic Activation: NONE, Method: PREINCUBATION) is “inactive; negative”; the mutagenic call (Test System: AMES SALMONELLA TYPHIMURIUM, Strain/Indicator: TA1537, Metabolic Activation: RAT, LIVER, S-9, AROCLOR 1254 (10%), Method: PREINCUBATION) was “inactive; negative”.

For the compound `O=C(O)c1ccc([N+](=O)[O-])o1`, the mutagenic call by setting is: (Test System: AMES SALMONELLA TYPHIMURIUM, Strain/Indicator: TA98(1,8-DNP6), Metabolic Activation: NONE, Method: STANDARD PLATE) “inactive; negative”; (Test System: AMES SALMONELLA TYPHIMURIUM, Strain/Indicator: TA98(1,8-DNP6), Metabolic Activation: RAT, LIVER, S-9, 3-METHYLCHOLANTHRENE, Method: STANDARD PLATE) “inactive; negative”; (Test System: AMES SALMONELLA TYPHIMURIUM, Strain/Indicator: TA98(NR), Metabolic Activation: NONE, Method: STANDARD PLATE) “inactive; negative”; (Test System: AMES SALMONELLA TYPHIMURIUM, Strain/Indicator: TA98(NR), Metabolic Activation: RAT, LIVER, S-9, 3-METHYLCHOLANTHRENE, Method: STANDARD PLATE) “inactive; negative”; under setting [1], “inactive; negative”; (Test System: AMES SALMONELLA TYPHIMURIUM, Strain/Indicator: TA98, Metabolic Activation: RAT, LIVER, S-9, 3-METHYLCHOLANTHRENE, Method: STANDARD PLATE) “inactive; negative”. Also, the mutagenic call under setting [3] is “active; positive”.

Consider `N#CC(C#N)=Cc1ccc([N+](=O)[O-])o1`, for which the mutagenic call under setting [5] is “active; positive”.
